Experimental data: patent US10448635B2, “Modulation of plant biology” (FBSCIENCES HOLDINGS, INC., priority 2012, dated 2019)

What was measured:
Assay type in all cases: in vivo
[1] = system: tomato plants (Lycopersicon es.); test: Experiment Fe-4: foliar CPPA, Fe (FeSO4) or CPPA and Fe on tomato plants; settings: for Leaf # / Vigor / Plt. Ht. / Plt. Wt. / Root Wt. / Shoot Wt.: tomato, foliar
Source text: Experiment Fe-4: The purpose of this experiment was to determine if the addition of low levels of iron to a CPPA sample containing lower than typical amounts of iron (e.g., Fe/TOC=0.135) would increase the biological response of plants. Nominal Fe/TOC ratios for CPPA range from 0.10 to 0.28 but the optimum ratio for “as-is” samples of CPPA, as determined in the previous experiments, is between 0.2 and 0.25. Thus, for this experiment, non-agrochemically effective amounts of iron were combined with CPPA samples. Tomato plants (Lycopersicon es.) were produced from seed and transplanted into 3 inch by 3 inch pots. There were 16 treatments plus an untreated check with 20 replicates per treatment arranged in a Randomized Complete Block design. Pots were treated with water (UTC), or CPPA only (3 different rates), Fe only (3 different rates), or CPPA and Fe at each of the rates. The CPPA rates corresponded to 260, 520, and 1040 mg organic carbon (TOC) per hectare and the Fe rates corresponded to 130, 260, and 520 mg Fe per hectare. All pots were treated by foliar application immediately after transplanting. Ten days after the application, ten of the plants were harvested and assessed for vigor, leaf number, plant height, plant weight, root weight, and shoot weight. […] Additional application rates of CPPA and Fe were evaluated with similar synergistic results observed for the combination of CPPA with amounts of iron. Twenty days after transplanting, the remaining ten plants in each treatment were assessed.

plants and/or seeds = test: Summary observations: CPPA treated with cation exchange resin, Fe alone and Fe added back; settings: seed treatment
Description: The plant biological response was generally observed to be better when a stoichiometric amount of Fe was added back (relative to the amount of CPPA or its TOC value) rather than an excess amount. […] These observations support the premise that the combination of CPPA and Fe are synergistic in their interaction and biological effect on plants and/or seeds.

[2] = system: tomato plants (Lycopersicon es.); test: Experiment Salt-1: CPPA/NaCl composition, foliar application; settings: NaCl 2600 mg/ha
Description: Experiment Salt-1: […] There were a total of 5 treatments plus an untreated check, each with 10 replicates per treatment arranged in a randomized block design. […] Each treatment comprised samples treated with CPPA alone, salt alone, or CPPA plus salt. Two rates of CPPA were used; the first was equivalent to 520 mg of TOC per hectare and a second equivalent to 1040 mg of TOC per hectare. Salt was applied at a rate equivalent to 2.6 g of salt per hectare. All treatments were diluted with water to provide a final spray volume equivalent to 208 lit per hectare, made with a spray bottle, with just enough spray solution to wet the leaf surface of each plant. Ten days after treatment the plants were assessed for vigor, leaf number, plant height, plant weight, root weight, shoot weight, and leaf conductance using a SPAD meter and are summarized in Table 8 and depicted in FIGS. 10-16.

[3] = 0 mg TOC/ha + 130 mg Fe/ha, 20 days after application
[4] = 0 mg TOC/ha + 520 mg Fe/ha, 10 days after application
[5] = 0 mg TOC/ha + 520 mg Fe/ha, 20 days after application
[6] = foliar at transplanting, 10 days after treatment

In the case of `O=S(=O)([O-])[O-].[Fe+2]` [Fe, FeSO4], the “biological effect on plant, root and shoot weights versus UTC” value ([1]; Fe alone 520 mg Fe/ha, 20 days) is reported as “apparent slightly negative biological effect”, the “Leaf #” value [1, 3] is reported as 6.3 ab and the Vigor [1, 3] is reported as 2.1 c. The “Leaf #” value [1, 4] was 6.6 ab, the “Plt. Ht.” value [1, 4] was 4.2 b and the “Plt. Wt.” value [1, 4] was 4.9 b. For the same molecule, the “Root Wt.” value [1, 4] was 1.4 bc, the “Shoot Wt.” value [1, 4] was 3.6 b and the Vigor [1, 4] was 3.8 b. For the same molecule, the “Leaf #” value [1, 5] was 5.1 b, the “Plt. Ht.” value [1, 5] was 6.3 b and the “Plt. Wt.” value [1, 5] was 4.5 b. For the same molecule, the “Root Wt.” value [1, 5] was 1.6 bc, the “Shoot Wt.” value [1, 5] was 2.9 cd and the Vigor [1, 5] was 2.5 c. For the same molecule, the root development (plants and/or seeds) was “negative effect” and the shoot development (plants and/or seeds) was “negative effect”.
`[Cl-].[Na+]` [NaCl] was tested, and the “Leaf #” value [2, 6] was 5.3 e, the “Plt. Ht.” value [2, 6] was 3.5 b and the “Plt. Wt.” value [2, 6] was 2.7 c. The “Root Wt.” value [2, 6] was 0.8 jc, the “Shoot Wt.” value [2, 6] was 2.0 c and the Vigor [2, 6] was 2.4 b. The “phytotoxicity of salt treatment alone” value ([2]; foliar, 10 days) was “significant amount of phytotoxicity” and the SPAD ([2]; leaf conductance using a SPAD meter, foliar at transplanting, 10 days after treatment) was 24.2 b.
